Measured values as given in patent publication US20170209534A1, “Pseudhymenochirins As Agents For Treatment Of Cancer And Microbial Infections” (priority 2014, published 2017).
Read-outs that look alike come from different tables or passages of the source. No end group written: not given here.

What was measured:
E. coli = assay: MIC by micro-dilution, E. coli; type: cell-based; conditions: reference strain
Procedure: (§1) Minimum Inhibitory Concentration (MIC) of the peptides was determined in duplicate in three independent experiments by standard micro-dilution methods according to CLSI guidelines (Clinical Laboratory and Standards Institute 2008a, 2008b) using 96-well microtitre cell-culture plates.
(§2) For bacteria assays, serial dilutions of the peptides (0.6-80 μM) in Mueller-Hinton broth (50 μL) were mixed with an inoculum of 50 μL of 10^6 colony forming units (CFU)/mL) from a log-phase culture. The peptide and inoculum mixture was incubated for 18 h at 37° C. in a humidified atmosphere. For yeast, an inoculum of 5×10^4 CFU/mL from Candida albicans was incubated in the presence of serial dilutions of the peptides (0.6-80 μM) in RPMI 1640 medium for 48 h at 35° C. After incubation, the absorbance at 630 nm of each well was determined using a microtiter plate reader.
(§3) As a control, incubations were carried out in parallel with increasing concentrations of antibiotics wherever the isolate was originally susceptible (ampicillin for S. aureus and E. coli, ciprofloxacin for K. pneumoniae and P. aeruginosa, and amphotericin B for C. albicans).

[1] = tested on: human breast adenocarcinoma MDA-MB-231 cells; assay: Viability assay (CellTiter-Glo, ATP), MDA-MB-231; type: cell-based; conditions: 24 h exposure; mean ± S.E.M.; read-out: LC50 MDA-231
Procedure: (§4) For cytotoxicity assay, the effect of the peptides on three different types of cancer cells were analysed, human non-small cell lung adenocarcinoma A549 cells, human breast adenocarcinoma MDA-MB-231 cells and human colorectal adenocarcinoma HT-29 cells. As control, HUVEC cell line was selected.
(§5) A549 cell line was maintained in RPMI 1640 medium containing 2 mM L-glutamine and supplemented with 10% FCS at 37° C. MDA-MB-231 and HT-29 cell lines were maintained in DMEM medium supplemented with 10% FCS at 37° C. The medium for cancer cells were further supplemented with antibiotics, penicillin 50 U/mL and streptomycin […]. HUVEC cells were maintained in EndoGRO MV-VEGF Complete Media Kit at 37° C.
(§6) The cells from each of the four cell lines were seeded individually in a 96-wells plate at a cell density of 5×10^3 cells/well. […]
(§7) The effect of the peptides on the cell viability was determined by the measurement of the concentration of ATP using CellTitre-Glo Luminescent Cell Viability assay. Luminescent signals were measured using a GLOMAX Luminometer system.
(§8) The LC50 value was calculated for both the peptides for individual cell lines by conducting non-linear regression analysis using commercially available software (SPPS version 17.0; SPS Inc, Chicago, Ill., USA). […]

C. albicans = assay: MIC by micro-dilution, C. albicans; type: cell-based, Candida albicans; conditions: reference strain; RPMI 1640, 48 h at 35° C.
Procedure: as §1, §2, §3

[2] = tested on: human red blood cells (RBC); assay: Haemolysis assay; type: cell-based
Procedure: (§9) For analysis of the haemolytic activity, RBCs (2×10^7 cells) taken from a healthy donor in DBPS, pH 7.4 (100 μL) were incubated with Ps-1Pb and Ps-2 Pa respectively in varying concentrations ranging from 1.6 μM to 100 μM of the peptides for a period of 1 hour at 37° C. After 1 hr, the samples were centrifuged at 12000 rpm for 15 seconds and the supernatant was collected. Absorbance of the supernatant was measured at 450 nm.
(§10) As control, the RBCs at a concentration of 2×10^7 were incubated in DBPS as a negative control to detect the absorbance in the absence of haemolysis. In addition, positive control was also maintained in which the RBC at a concentration of 2×10^7 was incubated with DPBS and 1% v/v Tween-20. The controls were centrifuged at 12000 rpm for 15 seconds and an absorbance reading was taken for the supernatant at 450 nm.
(§11) The LC50 value was taken as the mean concentration of peptide producing 50% haemolysis in three independent experiments.

Haemolysis assay = type: cell-based, human; conditions: human, pH 7.4
Procedure: as §9, §10, §11

[3] = tested on: S. aureus (ATCC 25923 and MRSA clinical isolates); type: cell-based, Staphylococcus aureus; conditions: for Minimum inhibitory concentration S. aureus ATCC 25923 / Minimum inhibitory concentration S. aureus S908: ATCC 25923; for Minimum inhibitory concentration S. aureus 127/08 / Minimum inhibitory concentration S. aureus 145/08 / Minimum inhibitory concentration S. aureus 274/08 / Minimum inhibitory concentration S. aureus T4/6: MRSA clinical isolate
Source text: Six clinical sporadic isolates of MRSA were isolated from the wounds of patients admitted to Tawam Hospital (Al Ain, UAE). The strains were characterised by multi-locus sequence typing (MLST), Staphylococcal cassette chromosome (SCCmec) typing, accessory gene regulator (agr) typing, Staphylococcus protein A (spa) typing, and toxin gene carriage (Sonnevend et al., 2012). The isolated strains (127/08, 145/08, 274/08, V4180, S908, and T4/6) were resistant to all β-lactam antibiotics tested and to a range of non-β-lactam antibiotics.
as §1, §2, §3

in vitro = type: cell-based
Procedure: as §4, §5, §6, §7, §8

E. faecalis ATCC 29212 = assay: MIC by micro-dilution, E. faecalis; type: cell-based, Enterococcus faecalis; conditions: reference strain
Procedure: as §1, §2

[4] = tested on: human colorectal adenocarcinoma HT-29 cells; assay: Viability assay (CellTiter-Glo, ATP), HT-29; type: cell-based; conditions: 24 h exposure; mean ± S.E.M.; read-out: LC50 HT-29
Procedure: as §4, §5, §6, §7, §8

K. pneumoniae = assay: MIC by micro-dilution, K. pneumoniae; type: cell-based; conditions: reference strain
Procedure: as §1, §2, §3

A. baumannii = tested on: A. baumannii
Procedure: (§12) Acinetobacter strains (NM8, NM35, NM75, NM109, and NM124) were isolated from different hospitals in the UAE. The Acinetobacter strains were characterised based on PCR analysis. […] Stenotrophomonas maltophilia strains (B32/1, B32/4, B5/5, B6/2, and U8708) were isolated from patients with bloodstream infection as discussed in Jumaa et al, 2006.
as §1, §2

S. maltophilia = tested on: S. maltophilia
Procedure: as §12, §1, §2

P. aeruginosa = assay: MIC by micro-dilution, P. aeruginosa; type: cell-based; conditions: reference strain
Procedure: as §1, §2, §3

S. epidermidis = assay: MIC by micro-dilution, S. epidermidis; type: cell-based; conditions: for Minimum inhibitory concentration S. epidermidis RP62A: strain RP62A; for Minimum inhibitory concentration S. epidermidis RP62A/1: strain RP62A/1; for Minimum inhibitory concentration S. epidermidis T6/19: strain T6/19; for Minimum inhibitory concentration S. epidermidis T37/8: strain T37/8
Procedure: as §1, §2

[5] = tested on: Stenotrophomonas maltophilia strains; conditions: all Stenotrophomonas strains (B32/1, B32/4, B5/5, B6/2, U8708); cited from earlier work
Acinetobacter strains = conditions: strains NM8, NM35, NM75, NM109, NM124; Mechkarska et al., 2013; cited from earlier work
S. aureus (ATCC 25923) = type: cell-based; conditions: 4×MIC, within 180 min
Procedure: In order to determine the rate at which the peptides caused cell death, log-phase cultures of S. aureus (ATCC 25923) and E. coli (ATCC 25726) at a concentration of 0.5×10^6 CFU/mL in Mueller-Hinton broth (1 ml) were incubated in polypropylene tubes at 37° C. with Ps-1Pb at a concentration of 4×MIC. Control incubations in the absence of peptide were also carried out. Aliquots of 25 μl were removed at the time intervals 0, 0.5, 1, 2, 3, 4 and 24 hrs and the CFU of the serially diluted samples was determined on Mueller-Hinton agar plates. The time required for 99.9% cell death was determined.

[6] = 1 hour at 37° C., mean ± S.E.M., read-out: LC50 RBC (50% haemolysis)

Compound	Minimum inhibitory concentration E. coli (E. coli)	Minimum inhibitory concentration C. albicans (C. albicans)	Minimum inhibitory concentration S. aureus V4180 [3]	Minimum inhibitory concentration S. aureus ATCC 25923 [3]	Minimum inhibitory concentration S. aureus S908 [3]	Minimum inhibitory concentration S. aureus 127/08 [3]	Minimum inhibitory concentration S. aureus 145/08 [3]	Minimum inhibitory concentration S. aureus 274/08 [3]	Minimum inhibitory concentration S. aureus T4/6 [3]	Minimum inhibitory concentration E. faecalis ATCC 29212 (E. faecalis ATCC 29212)	Minimum inhibitory concentration K. pneumoniae (K. pneumoniae)	Minimum inhibitory concentration A. baumannii NM8 (A. baumannii)	Minimum inhibitory concentration A. baumannii NM35 (A. baumannii)	Minimum inhibitory concentration A. baumannii NM75 (A. baumannii)	Minimum inhibitory concentration A. baumannii NM109 (A. baumannii)	Minimum inhibitory concentration A. baumannii NM124 (A. baumannii)	Minimum inhibitory concentration S. maltophilia B5/5 (S. maltophilia; clinical isolate)	Minimum inhibitory concentration S. maltophilia B6/2 (S. maltophilia; clinical isolate)	Minimum inhibitory concentration S. maltophilia B32/1 (S. maltophilia; clinical isolate)	Minimum inhibitory concentration S. maltophilia B32/4 (S. maltophilia; clinical isolate)	also measured
GIFPIFAKLLGKVIKVASSLISKGRTE [Pseudhymenochirin-2Pa, Pseudhymenochirin-2 Pa]	>80 µM	80 µM	10 µM	5 µM	10 µM	5 µM	10 µM	10 µM	10 µM	20 µM	>80 µM	20 µM	10 µM	10 µM	10 µM	20 µM	40 µM	20 µM	10 µM	10 µM	CC50 [1]: 6.2 ± 0.6 µM; CC50 [2, 6]: 6 µM; haemolytic activity (in words) ([2]; human erythrocytes): appreciable haemolytic activity; HC50 at 1 hour (Haemolysis assay; [6]): 6.2 ± 1 µM; CC50 at 24 h (in vitro; 24 h exposure, non-neoplastic cells, mean ± S.E.M., read-out: LC50 HUVEC): 68 µM; CC50 [4]: 11.5 ± 2.6 µM; Minimum inhibitory concentration S. maltophilia U8908 (S. maltophilia; clinical isolate): 20 µM; Minimum inhibitory concentration P. aeruginosa (P. aeruginosa): >80 µM; Minimum inhibitory concentration S. epidermidis RP62A (S. epidermidis): 5 µM; Minimum inhibitory concentration S. epidermidis RP62A/1 (S. epidermidis): 2.5 µM; Minimum inhibitory concentration S. epidermidis T6/19 (S. epidermidis): 5 µM; Minimum inhibitory concentration S. epidermidis T37/8 (S. epidermidis): 10 µM
C[C@@H](O)[C@H]1C(=O)N2C(C(=O)O)=C(S[C@@H]3CN[C@H](C(=O)N(C)C)C3)[C@H](C)[C@H]12 [meropenem]	–	–	–	–	–	–	–	–	–	–	–	–	–	–	–	–	–	–	–	–	MIC against Stenotrophomonas strains [5]: > 32 µg/mL
colistin	–	–	–	–	–	–	–	–	–	–	–	–	–	–	–	–	–	–	–	–	susceptibility of Acinetobacter strains (in words) (Acinetobacter strains): sensitive
CN(C)c1cc(NC(=O)CNC(C)(C)C)c(O)c2c1C[C@H]1C[C@H]3[C@H](N(C)C)C(O)=C(C(N)=O)C(=O)[C@@]3(O)C(O)=C1C2=O [tigecycline]	–	–	–	–	–	–	–	–	–	–	–	–	–	–	–	–	–	–	–	–	susceptibility of Acinetobacter strains (in words) (Acinetobacter strains): sensitive
co-trimoxazole	–	–	–	–	–	–	–	–	–	–	–	–	–	–	–	–	–	–	–	–	MIC against Stenotrophomonas strains [5]: < 5 µg/mL
IKIPSFFRNILKKVGKEAVSLIAGALKQS [Pseudhymenochirin-1Pb]	10 µM	80 µM	5 µM	5 µM	5 µM	5 µM	10 µM	5 µM	5 µM	10 µM	20 µM	10 µM	5 µM	5 µM	5 µM	5 µM	10 µM	5 µM	5 µM	5 µM	haemolytic activity (in words) [2]: high haemolytic activity; less cytotoxic to human erythrocytes as compared to the tumour cells [2]: 3-11 fold; HC50 at 1 hour (Haemolysis assay): 28 ± 2 µM; CC50 at 24 h (in vitro; human): 5.6 ± 0.9 µM; killing of the bacteria, S. aureus (S. aureus (ATCC 25923)): > 99.9%; MIC against clinical isolates of A. baumannii (range) (A. baumannii): 5 to 10 µM; MIC against clinical isolates of S. maltophilia (range) (S. maltophilia): 5 to 10 µM; Minimum inhibitory concentration S. maltophilia U8908 (S. maltophilia): 5 µM; Minimum inhibitory concentration P. aeruginosa (P. aeruginosa): 20 µM; Minimum inhibitory concentration S. epidermidis RP62A (S. epidermidis): 2.5 µM; Minimum inhibitory concentration S. epidermidis RP62A/1 (S. epidermidis): 1.25 µM; Minimum inhibitory concentration S. epidermidis T6/19 (S. epidermidis): 2.5 µM; Minimum inhibitory concentration S. epidermidis T37/8 (S. epidermidis): 2.5 µM
